Laboratory results reported in US7141546B1, “CRFR2 selective ligands” (priority 2001, dated 2006).
Read-outs that look alike come from different tables or passages of the source. Bridge positions count the residues as written; N and C are the ends. Square brackets hold non-standard residues; d marks the D form. Peptide text beside a SMILES is read from it. αMeL = CC(C)C[C@](C)(N)C(=O)O; Nle = CCCC[C@H](N)C(=O)O

Columns and labels:
CRFR1 [1] = molecular target: T1, CRFR1 (Homo sapiens, UniProt P34998); assay: Competitive displacement binding assay, cloned hCRFR1 expressed in CHO cells
T1 construct: expressed in transfected cells
T1 sequence (P34998 24-415): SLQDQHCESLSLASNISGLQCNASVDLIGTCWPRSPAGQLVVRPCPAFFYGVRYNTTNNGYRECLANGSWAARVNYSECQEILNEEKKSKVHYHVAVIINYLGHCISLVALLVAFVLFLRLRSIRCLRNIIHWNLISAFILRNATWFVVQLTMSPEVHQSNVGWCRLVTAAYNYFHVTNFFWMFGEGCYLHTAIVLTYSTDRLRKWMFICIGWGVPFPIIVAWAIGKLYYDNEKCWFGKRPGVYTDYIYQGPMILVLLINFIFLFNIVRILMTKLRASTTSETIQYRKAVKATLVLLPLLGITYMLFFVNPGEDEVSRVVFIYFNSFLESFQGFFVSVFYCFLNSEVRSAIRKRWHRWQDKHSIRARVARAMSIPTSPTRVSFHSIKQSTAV
Excerpt: A candidate CRFR2 ligand is also easily evaluated in a binding assay using known CRF receptors, such as that described in Perrin, M., et al., Endocrinology, 118, 1171–1179 (1986). CRF receptors and the details of binding assays are discussed later in this specification. […] One such representative binding assay utilizing CRF-R1 receptor is described in Chen, et al., P.N.A.S., 90, 8967–8971 (October 1993).
(§1) CRF receptors have now been cloned and are disclosed in the aforementioned Chen et al. article, in Perrin, M., et al., P.N.A.S, 92, 2969–2973 (March 1995), and in Lovenberg, T., et al., P.N.A.S., 92, 836–840 (January 1995). Binding affinity is a term used to refer to the strength of interaction between ligand and receptor. […] Ki (inhibitory binding affinity constant) is determined using a “standard” or “tracer” radioactive ligand and thus measures the displacement of the tracer from the receptor or binding protein; it is most properly expressed with reference to such tracer. However, so long as these assays are carefully performed under specific conditions with relatively low concentrations of receptor or the like, the calculated Ki will be substantially the same as its dissociation constant KD. […] It is particularly efficient to test for Ki because only a single tracer need be labelled, e.g. radioiodinated. […] Those reported hereinafter are derived using radioactively labeled [Tyr Glu^1, Nle^17]-Svg as a radioligand.
(§2) Binding assays with cells expressing human CRFR1 are carried out as described in the Chen et al. P.N.A.S., supra. The affinities of test peptides for CRFR1 and CRFR2b stably expressed in CHO cells were determined by competitive displacement of ^125I-(Nle^21, Tyr^32) ovine CRF (for CRFR1) or of [^125I-Tyr^o-]Ucn (for CRFR2b) as described.

CRFR2 = molecular target: T2, CRFR2 (Homo sapiens, UniProt Q13324); assay: cAMP accumulation in CHO cells stably transfected with CRFR2 and treated with CRF; format: cell-based; settings: for antagonism of CRF activity with respect to CRFR2 (cAMP accumulation): CHO cells stably transfected with CRFR2, treated with CRF
T2 construct: expressed in transfected cells
T2 sequence (Q13324 1-438 isoform Q13324-2): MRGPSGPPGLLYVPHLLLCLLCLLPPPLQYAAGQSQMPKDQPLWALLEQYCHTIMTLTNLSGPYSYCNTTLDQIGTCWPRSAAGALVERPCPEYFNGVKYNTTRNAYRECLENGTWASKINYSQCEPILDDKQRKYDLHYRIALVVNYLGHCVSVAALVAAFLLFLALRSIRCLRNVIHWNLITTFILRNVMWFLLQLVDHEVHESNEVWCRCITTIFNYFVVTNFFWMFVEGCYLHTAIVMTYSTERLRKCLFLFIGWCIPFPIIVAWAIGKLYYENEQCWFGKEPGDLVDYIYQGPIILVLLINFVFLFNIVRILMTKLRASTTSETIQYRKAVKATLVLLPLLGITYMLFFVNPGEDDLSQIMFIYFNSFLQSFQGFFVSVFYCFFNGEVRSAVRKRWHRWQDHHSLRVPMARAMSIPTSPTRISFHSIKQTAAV
Excerpt: In addition to inhibiting CRF receptor binding, a candidate's CRF receptor antagonist activity may be established by the ability of the compound to antagonize an activity associated with CRF. For example, CRF is known to stimulate various biochemical processes, including adenylate cyclase activity. Therefore, compounds may be evaluated as CRF antagonists by their ability to antagonize CRF-stimulated adenylate cyclase activity by, for example, measuring cAMP levels. The inhibition of CRF-stimulated adenylate cyclase activity, determined by the assay described by G. Battaglia et al., Synapse 1:572 (1987), provides an assay for determining a compound's ability to antagonize CRF activity. Accordingly, CRF receptor antagonist activity may be determined by assay techniques which generally include an initial binding assay followed by such a cAMP screening protocol. […]

CRFR1 [2] = molecular target: T1, CRFR1; assay: cAMP accumulation in CHO cells stably transfected with CRFR1 and treated with CRF; format: cell-based
Excerpt: In addition to inhibiting CRF receptor binding, a candidate's CRF receptor antagonist activity may be established by the ability of the compound to antagonize an activity associated with CRF. For example, CRF is known to stimulate various biochemical processes, including adenylate cyclase activity. Therefore, compounds may be evaluated as CRF antagonists by their ability to antagonize CRF-stimulated adenylate cyclase activity by, for example, measuring cAMP levels. The inhibition of CRF-stimulated adenylate cyclase activity, determined by the assay described by G. Battaglia et al., Synapse 1:572 (1987), provides an assay for determining a compound's ability to antagonize CRF activity. Accordingly, CRF receptor antagonist activity may be determined by assay techniques which generally include an initial binding assay followed by such a cAMP screening protocol.
as §2

human CRFR2b = molecular target: T3, human CRFR2b (Homo sapiens, UniProt Q13324); assay: Competitive displacement binding assay, stably transfected CHO cells expressing human CRFR2b; settings: for binding selectivity, CRFR2 versus CRFR1: in words, binding to CRFR2 compared with CRFR1
T3 construct: expressed in transfected cells
T3 sequence (Q13324 1-438 isoform Q13324-2): T2 sequence (Q13324 1-438 isoform Q13324-2)
Method: as §1, §2

CRF receptors = assay: Intrinsic CRF activity of the antagonist; settings: when administered at the highest dosage

Row | Molecule | IC50 (CRFR1 [1]) | Ki (CRFR1 [1]) | antagonism of CRF activity with respect to CRFR2 (cAMP accumulation) (CRFR2) | antagonism of CRF activity with respect to CRFR1 (cAMP accumulation) (CRFR1 [2]) | Ki (human CRFR2b) | intrinsic CRF activity (CRF receptors) | IC50 (human CRFR2b) | IC50 (CRFR1 [1]; read-out: affinity of cloned hCRFR1 for the peptide (competitive displacement of bound radioligand)) | selectivity as Ucn antagonist (CRFR2; in words, compared with the parent Ucn analog) | binding selectivity, CRFR2 versus CRFR1 (human CRFR2b)
1 | CCCC[C@H](NC(=O)[C@H](CCCCN)NC(=O)[C@H](CCCNC(=N)N)NC(=O)[C@H](CC(C)C)NC(=O)[C@](C)(CC(C)C)NC(=O)[C@H](Cc1c[nH]cn1)NC(=O)[C@@H](Cc1ccccc1)NC(C)=O)C(=O)N[C@H](C(=O)N[C@@H](CCC(=O)O)C(=O)N[C@H](C(=O)N[C@@H](CCC(=O)O)C(=O)N[C@@H](CCCCN)C(=O)N[C@@H](CCC(N)=O)C(=O)N[C@@H](CCC(=O)O)C(=O)N[C@@H](CCCCN)C(=O)N[C@@H](CCC(=O)O)C(=O)N[C@@H](CCCCN)C(=O)N[C@@H](CCC(N)=O)C(=O)N[C@@H](CCC(N)=O)C(=O)N[C@@H](C)C(=O)N[C@H]1CCC(=O)NCCCC[C@@H](C(=O)N[C@@H](CC(C)C)C(=O)N[C@@H](CC(C)C)C(=O)N[C@@H](CC(C)C)C(=O)N[C@@H](CC(=O)O)C(=O)N[C@@](C)(CC(C)C)C(=O)N[C@H](C(N)=O)[C@@H](C)CC)NC(=O)[C@H](CC(N)=O)NC(=O)[C@H](CC(N)=O)NC1=O)[C@@H](C)CC)[C@@H](C)CC [Example 1 cyclic peptide, (cyclo 31–34)[Ac-D-Phe^11, His^12, CML ^13,39, Nle^17, Glu^31, Lys^34]-sauvagine(11–40)] | > 500 nM | ~1000 nM | effectively antagonize CRF activity | little or no effect | 1.1 nM | only minor intrinsic CRF activity | – | – | – | –
2 | CCCC[C@H](NC(=O)[C@H](CCCCN)NC(=O)[C@H](CCCNC(=N)N)NC(=O)[C@H](CC(C)C)NC(=O)[C@](C)(CC(C)C)NC(=O)[C@H](Cc1c[nH]cn1)NC(=O)[C@@H](Cc1ccccc1)NC(=O)[C@H](CO)NC(=O)[C@H](CC(C)C)NC(=O)[C@H](CC(=O)O)NC(C)=O)C(=O)N[C@H](C(=O)N[C@@H](CCC(=O)O)C(=O)N[C@H](C(=O)N[C@@H](CCC(=O)O)C(=O)N[C@@H](CCCCN)C(=O)N[C@@H](CCC(N)=O)C(=O)N[C@@H](CCC(=O)O)C(=O)N[C@@H](CCCCN)C(=O)N[C@@H](CCC(=O)O)C(=O)N[C@@H](CCCCN)C(=O)N[C@@H](CCC(N)=O)C(=O)N[C@@H](CCC(N)=O)C(=O)N[C@@H](C)C(=O)N[C@H]1CCC(=O)NCCCC[C@@H](C(=O)N[C@@H](CC(C)C)C(=O)N[C@@H](CC(C)C)C(=O)N[C@@H](CC(C)C)C(=O)N[C@@H](CC(=O)O)C(=O)N[C@@](C)(CC(C)C)C(=O)N[C@H](C(N)=O)[C@@H](C)CC)NC(=O)[C@H](CC(N)=O)NC(=O)[C@H](CC(N)=O)NC1=O)[C@@H](C)CC)[C@@H](C)CC [Example 2 cyclic peptide, (cyclo 31–34)[Ac-D-Phe^11, His^12, CML^13,39, Nle^17, Glu^31, Lys^34]-sauvagine(8–40)] | > 500 nM | ~543 nM | effectively antagonize CRF activity | little or no effect | – | – | 1.3 nM | – | – | –
3 | CCCC[C@H](NC(=O)[C@H](CCC(=O)O)NC(=O)[C@H](CC(C)C)NC(=O)[C@@H](NC(=O)[C@H](CCC(=O)O)NC(=O)[C@H](CCCNC(=N)N)NC(=O)[C@H](CC(C)C)NC(=O)[C@](C)(CC(C)C)NC(=O)[C@H](Cc1c[nH]cn1)NC(=O)[C@H](N)Cc1ccccc1)C(C)C)C(=O)N[C@@H](C)C(=O)N[C@@H](CCCNC(=N)N)C(=O)N[C@@H](C)C(=O)N[C@@H](CCC(=O)O)C(=O)N[C@@H](CCC(N)=O)C(=O)N[C@@H](CC(C)C)C(=O)N[C@@H](C)C(=O)N[C@@H](CCC(N)=O)C(=O)N[C@@H](CCC(N)=O)C(=O)N[C@@H](C)C(=O)N[C@H]1CCC(=O)NCCCC[C@@H](C(=O)N[C@@H](CCCCN)C(=O)N[C@@H](CC(C)C)C(=O)N[C@@H](CCCC)C(=O)N[C@@H](CCC(=O)O)C(=O)N[C@@](C)(CC(C)C)C(=O)N[C@H](C(N)=O)[C@@H](C)CC)NC(=O)[C@H](CC(N)=O)NC(=O)[C@H](CO)NC1=O [Example 9B, (cyclo 32–35) [D-Phe^12, CML^14,40, Nle^21,38, Glu^32, Lys^35]-r/hCRF(12–41)] (H-[dF]H[αMeL]LREVLE[Nle]ARAEQLAQQAESNKKL[Nle]E[αMeL]I-NH2; lactam 21-24) | – | – | – | – | – | – | – | > 100 nM | – | –
4 | (cyclo 31–34) [Ac-Asp^8,D-Phe^11,Lys^34]-Ucn(8–40) [Example 10C] | – | – | effectively antagonize CRF activity | little or no effect | – | – | – | – | does not significantly alter its selectivity | very good selectivity
5 | (cyclo 31–34) [D-Tyr^11, Lys^34], -Ucn(11–40) [Example 10] | – | – | effectively antagonize CRF activity | little or no effect | – | – | – | – | – | very good selectivity
6 | (cyclo 31–34)[D-Phe^11, Lys^34]-Ucn(11–40) [Example 10A] | – | – | effectively antagonize CRF activity | little or no effect | – | – | – | – | – | very good selectivity
7 | [Ac-Asp^8,D-Phe^11,CML^13,39, Lys^34]-Ucn(8–40) [Example 10D] | – | – | effectively antagonize CRF activity | little or no effect | – | – | – | – | – | very good selectivity
8 | [D-Phe^11, Gln^31,Lys(Ac)^34]-Ucn(11–40) [Example 10B] | – | – | effectively antagonize CRF activity | little or no effect | – | – | – | – | – | very good selectivity
